Molecular target: T1, human MAP4K4 kinase domain (Homo sapiens, UniProt O95819)
T1 construct: 0.5 nM human MAP4K4 kinase domain (Invitrogen); purchased Invitrogen
Experiment: MAP4K4 kinase activity, CisBio HTRF Transcreener ADP assay
Type: biochemical
Details: IC50 category; ATP at Km (10 μM), 0.5 nM kinase domain, 2 h; read-out: MAP4K4
Source text: Compounds of the present invention were screened for their inhibitory activity against MAP4K4, versus selected off-target hits found with early members of this chemical series. MAP4K4 kinase activity was monitored using the CisBio HTRF Transcreener ADP assay, a competitive immunoassay with a reproducible Z′>0.6. In the detection step, endogenous ADP and d2-labeled ADP compete for binding an anti-ADP monoclonal antibody labelled with Eu^3+ cryptate. A ratiometric fluorescent read-out is used at 665 and 620 nm. Reactions were performed in the presence of 1% DMSO with ATP added at Km (10 μM), 0.5 nM human MAP4K4 kinase domain (Invitrogen), 1 μM biotin-myelin basic protein as substrate (Invitrogen), and extension of reaction time to 2 h. Assays were run in Greiner low volume plates with a final reaction volume of 10 μl. The MAP4K4 inhibition data are provided in Table 41 below for selected compounds of the present invention. The data has been categorised based on the IC50 value of the compound as “A”, “B” or “C”. IC50: A≤100 nM; 100 nM<B≤1 μM; 1 μM<C; nd=not determined.

T1 sequence (O95819 25-289 limits assumed): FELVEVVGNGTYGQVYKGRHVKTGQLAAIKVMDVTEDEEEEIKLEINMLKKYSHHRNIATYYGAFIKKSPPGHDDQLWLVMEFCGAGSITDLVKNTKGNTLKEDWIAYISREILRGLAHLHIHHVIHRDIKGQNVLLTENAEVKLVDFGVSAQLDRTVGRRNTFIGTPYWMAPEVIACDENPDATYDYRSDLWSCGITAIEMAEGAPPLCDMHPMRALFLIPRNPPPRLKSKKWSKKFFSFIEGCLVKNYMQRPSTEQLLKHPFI

| SMILES | IC50 [nM] |
| --- | --- |
| COCCNc1ccc(-c2cn(-c3ccncc3)c3nc[nH]c(=O)c23)cn1 [Ex-14] | ≤ 100 |
| COCCNc1ncc(-c2cn(-c3ccncc3)c3nc[nH]c(=O)c23)cn1 [Ex-32] | 100 to 1000 |
| CC(=O)N1CC(n2cc(-c3cn(-c4ccccc4)c4nc[nH]c(=O)c34)cn2)C1 [Ex-60] | ≤ 100 |
| O=c1[nH]cnc2c(-c3ccncc3F)cn(-c3ccccc3)c12 [Ex-121] | > 1000 |
| O=c1[nH]cnc2c1c(-c1ccc(OCCCN3CCOCC3)cc1)cn2-c1cccnc1 [Ex-42] | ≤ 100 |
| O=c1[nH]cnc2c1c(-c1cnn(Cc3ccccc3)c1)cn2-c1ccccc1 [Ex-23] | ≤ 100 |
| Cn1cc(-c2cn(-c3ccccc3)c3nc[nH]c(=O)c23)cn1 [Ex-24] | ≤ 100 |
| Nc1cc(-c2cn(-c3ccccc3)c3nc[nH]c(=O)c23)ccn1 [Ex-8] | ≤ 100 |
| O=c1[nH]cnc2c(-c3cnn(CCO)c3)cn(-c3ccccc3)c12 [Ex-123] | 100 to 1000 |
| O=c1[nH]cnc2c1c(-c1ccccc1)cn2-c1ccncc1 [Ex-2] | 100 to 1000 |
| O=c1[nH]cnc2c1c(-c1ccccc1)cn2-c1cccnc1 [Ex-1, 5-Phenyl-7-pyridin-3-yl-3,7-dihydro-pyrrolo[2,3-d]pyrimidin-4-one] | 100 to 1000 |
| CN(C)CCCOc1ccc(-c2cn(-c3ccccc3)c3c(=O)[nH]cnc23)cn1 [Ex-114, 7-[6-(3-Dimethylamino-propoxy)-pyridin-3-yl]-5-phenyl-3,5-dihydro-pyrrolo[3,2-d]pyrimidin-4-one] | 100 to 1000 |
| CC(=O)N1CC(n2cc(-c3cn(-c4cccc(F)c4)c4nc[nH]c(=O)c34)cn2)C1 [Ex-11] | ≤ 100 |
| CC(C)(O)CCOc1ccc(-c2cn(-c3ccncc3)c3nc[nH]c(=O)c23)cc1 [Ex-69] | ≤ 100 |
| N#Cc1cc(-c2cn(-c3ccccc3)c3nc[nH]c(=O)c23)cnc1N1CC[C@H](O)C1 [Ex-41] | ≤ 100 |
| COCCn1cc(-c2cn(-c3ccccc3)c3nc[nH]c(=O)c23)cn1 [Ex-62] | ≤ 100 |
| CN1CCN(CCCOc2ccc(-c3cn(-c4cccnc4)c4nc[nH]c(=O)c34)cc2)CC1 [Ex-43] | ≤ 100 |
| CN(CCO)c1ccc(-c2cn(-c3ccccc3)c3nc[nH]c(=O)c23)cn1 [Ex-52] | ≤ 100 |
| CC(C)(O)CCOc1ccc(-c2cn(-c3cccnc3)c3ncn(COP(=O)(O)O)c(=O)c23)cc1 [Ex-102, (5-(4-(3-hydroxy-3-methylbutoxy)phenyl)-4-oxo-7-(pyridin-3-yl)-4,7-dihydro-3H-pyrrolo[2,3-d]pyrimidin-3-yl)methyl dihydrogen phosphate] | > 1000 |
| O=c1cc(-c2cn(-c3ccccc3)c3c(=O)[nH]cnc23)cc[nH]1 [Ex-128] | 100 to 1000 |
| CNCCn1cc(-c2cn(-c3ccccc3)c3nc[nH]c(=O)c23)cn1 [Ex-109] | 100 to 1000 |
| CC(C)(O)COc1ccc(-c2cn(-c3cc[n+]([O-])cc3)c3nc[nH]c(=O)c23)cc1 [Ex-98] | 100 to 1000 |
| CC(C)(O)CCOc1ccc(-c2cn(-c3cccnc3)c3nc[nH]c(=O)c23)cc1C#N [Ex-87] | ≤ 100 |

| SMILES | IC50 [nM] |
| --- | --- |
| COCCn1cc(-c2cn(-c3ccncc3)c3nc[nH]c(=O)c23)cn1 [Ex-63] | 100 to 1000 |
| CC(=O)NC1CC(n2cc(-c3cn(-c4ccccc4)c4nc[nH]c(=O)c34)cn2)C1 (stereo not drawn) [Ex-16] | ≤ 100 |
| Cn1cc(-c2cn(-c3ccccc3)c3c(=O)[nH]cnc23)cn1 [Ex-120] | 100 to 1000 |
| O=c1[nH]cnc2c1c(-c1ccc(NCCO)nc1)cn2-c1ccccc1 [Ex-48, 5-[6-(2-Hydroxy-ethylamino)-pyridin-3-yl]-7-phenyl-3,7-dihydro-pyrrolo[2,3-d]pyrimidin-4-one] | ≤ 100 |
| COCCNc1ncc(-c2cn(-c3cccc(F)c3)c3nc[nH]c(=O)c23)cn1 [Ex-31] | ≤ 100 |
| Cc1cc(-n2cc(-c3ccc(OCCC(C)(C)O)cc3)c3c(=O)[nH]cnc32)ccn1 [Ex-82] | 100 to 1000 |
| O=c1[nH]cnc2c1c(-c1ccc(OCCC3(O)CC3)cc1)cn2-c1cccnc1 [Ex-70] | ≤ 100 |
| O=c1[nH]cnc2c1c(-c1ccncc1)cn2-c1ccccc1 [Ex-4] | ≤ 100 |
| COc1cc(-n2cc(-c3ccc(OCCC(C)(C)O)cc3)c3c(=O)[nH]cnc32)ccn1 [Ex-83] | 100 to 1000 |
| O=c1[nH]cnc2c1c(-c1cnc(NCCO)nc1)cn2-c1cccnc1 [Ex-45] | 100 to 1000 |
| O=c1[nH]cnc2c1c(-c1cccnc1)cn2-c1ccccc1 [Ex-5] | ≤ 100 |
| COc1cc(-c2cn(-c3ccccc3)c3nc[nH]c(=O)c23)ccn1 [Ex-17] | ≤ 100 |
| CC(=O)N1CC(n2cc(-c3cn(-c4ccncc4)c4nc[nH]c(=O)c34)cn2)C1 [Ex-12] | 100 to 1000 |
| Cn1ccc(-c2cn(-c3ccccc3)c3c(=O)[nH]cnc23)n1 [Ex-122] | > 1000 |
| O=c1[nH]cnc2c1c(-c1ccc(OC(F)(F)CO)cc1)cn2-c1cccnc1 [Ex-77] | ≤ 100 |
| CN(CCC(C)(C)O)c1ccc(-c2cn(-c3ccccc3)c3nc[nH]c(=O)c23)cn1 [Ex-95] | ≤ 100 |
| COCCOc1ccc(-c2cn(-c3cncc(F)c3)c3nc[nH]c(=O)c23)cc1 [Ex-85] | ≤ 100 |
| COc1ccc(-c2cn(-c3ccccc3)c3nc[nH]c(=O)c23)cn1 [Ex-18] | ≤ 100 |
| O=c1[nH]cnc2c1c(-c1cn[nH]c1)cn2-c1ccccc1 [Ex-112, 7-Phenyl-5-(1H-pyrazol-4-yl)-3,7-dihydro-pyrrolo[2,3-d]pyrimidin-4-one] | ≤ 100 |
| CC(=O)OCCn1cc(-c2cn(-c3ccc(F)cc3)c3nc[nH]c(=O)c23)cn1 [Ex-47, 2-(4-(7-(4-fluorophenyl)-4-oxo-4,7-dihydro-3H-pyrrolo[2,3-d]pyrimidin-5-yl)-1H-pyrazol-1-yl)ethyl Acetate] | 100 to 1000 |
| COCCOc1ccc(-c2cn(-c3ccncc3)c3nc[nH]c(=O)c23)cn1 [Ex-13] | ≤ 100 |
| O=c1[nH]cnc2c1c(-c1cnc(N3CC(O)C3)nc1)cn2-c1ccccc1 [Ex-50] | 100 to 1000 |
| CNc1ccc(-c2cn(-c3ccccc3)c3c(=O)[nH]cnc23)cn1 [Ex-134] | > 1000 |

| SMILES | IC50 [nM] |
| --- | --- |
| O=c1[nH]cnc2c1c(-c1ccncc1F)cn2-c1ccccc1 [Ex-61] | 100 to 1000 |
| COCCNc1ccc(-c2cn(-c3ccccc3)c3nc[nH]c(=O)c23)cn1 [Ex-38] | ≤ 100 |
| COc1ccc(-c2cn(-c3ccccc3)c3c(=O)[nH]cnc23)cn1 [Ex-132] | 100 to 1000 |
| CN(CCO)c1ncc(-c2cn(-c3ccccc3)c3nc[nH]c(=O)c23)cc1C#N [Ex-53] | ≤ 100 |
| N#Cc1cc(-c2cn(-c3ccccc3)c3nc[nH]c(=O)c23)cnc1N1CC[C@@H](O)C1 [Ex-40] | ≤ 100 |
| COCCOc1ccc(-c2cn(-c3cccnc3)c3cc[nH]c(=O)c23)cc1 [Ex-140, 3-[4-(2-Methoxy-ethoxy)-phenyl]-1-pyridin-3-yl-1,5-dihydro-pyrrolo[3,2-c]pyridin-4-one] | ≤ 100 |
| CC(C)(O)COc1ccc(-c2cn(-c3cccnc3)c3nc[nH]c(=O)c23)cc1 [Ex-66, 5-(4-(2-hydroxy-2-methylpropoxy)phenyl)-7-(pyridin-3-yl)-3,7-dihydro-4H-pyrrolo[2,3-d]pyrimidin-4-one] | ≤ 100 |
| O=C(C1CC1)N1CC(n2cc(-c3cn(-c4cccnc4)c4nc[nH]c(=O)c34)cn2)C1 [Ex-36] | 100 to 1000 |
| O=c1[nH]cnc2c(-c3cncnc3)cn(-c3ccccc3)c12 [Ex-115] | > 1000 |
| COC(=O)Cn1cc(-c2cn(-c3ccccc3)c3nc[nH]c(=O)c23)cn1 [Ex-21] | ≤ 100 |
| COc1ccc(-n2cc(-c3ccc(OCCC(C)(C)O)cc3)c3c(=O)[nH]cnc32)cn1 [Ex-86] | ≤ 100 |
| Cc1cc(-c2cn(-c3ccccc3)c3c(=O)[nH]cnc23)ccn1 [Ex-130] | 100 to 1000 |
| CC(=O)N1CC(n2cc(-c3cn(-c4cccnc4)c4nc[nH]c(=O)c34)cn2)C1 [Ex-35] | 100 to 1000 |
| COCCn1cc(-c2cn(-c3cccnc3)c3nc[nH]c(=O)c23)cn1 [Ex-19] | 100 to 1000 |
| CC(C)(O)CCOc1ccc(-c2cn(-c3ccc(N)nc3)c3nc[nH]c(=O)c23)cc1 [Ex-96, 7-(6-aminopyridin-3-yl)-5-(4-(3-hydroxy-3-methylbutoxy)phenyl)-3,7-dihydro-4H-pyrrolo[2,3-d]pyrimidin-4-one] | ≤ 100 |
| O=c1[nH]cnc2c1c(-c1ccc(O[C@@H]3CO[C@@H]4[C@H]3OC[C@@H]4O)cc1)cn2-c1cccnc1 [Ex-80] | ≤ 100 |
| COCCNc1ccc(-c2cn(-c3cccnc3)c3nc[nH]c(=O)c23)cn1 [Ex-39] | 100 to 1000 |
| O=c1[nH]cnc2c1c(-c1ccn[nH]1)cn2-c1ccccc1 [Ex-57] | 100 to 1000 |
| O=c1[nH]cnc2c1c(-c1cnn(CCCO)c1)cn2-c1ccccc1 [Ex-113, 5-[1-(3-Hydroxy-propyl)-1H-pyrazol-4-yl]-7-phenyl-3,7-dihydro-pyrrolo[2,3-d]pyrimidin-4-one] | ≤ 100 |
| O=c1[nH]cnc2c1c(-c1cnn(C3CNC3)c1)cn2-c1ccccc1 [Ex-108, 5-(1-Azetidin-3-yl-1H-pyrazol-4-yl)-7-phenyl-3,7-dihydro-pyrrolo[2,3-d]pyrimidin-4-one] | 100 to 1000 |
| COCCCOc1ccc(-c2cn(-c3cccnc3)c3nc[nH]c(=O)c23)cc1 [Ex-71] | ≤ 100 |
| O=c1[nH]cnc2c(-c3ccc(OC4CC4)nc3)cn(-c3ccccc3)c12 [Ex-137, 7-(6-cyclopropoxypyridin-3-yl)-5-phenyl-3,5-dihydro-4H-pyrrolo[3,2-d]pyrimidin-4-one] | 100 to 1000 |
| O=c1[nH]cnc2c(-c3ccc4[nH]cnc4c3)cn(-c3ccccc3)c12 [Ex-118] | 100 to 1000 |

Source: US12247045B2, “MAP4K4 inhibitors” (Imperial College Innovations Limited, priority 2018, dated 2025)
